Source: patent US7491495B2, “Adsorption of nucleic acids to a solid phase” (Roche Diagnostics Operations, Inc., priority 2004, dated 2009)
Where two headings read alike, the source gives them in different places.

Target: proteinase K (Parengyodontium album, UniProt P06873)
Details: relative to 0 min control buffer without chaotropic agent (0.5 U/ml = 100%); for Activity of proteinase K at t = 0 min: 0 min value; for Activity of proteinase K at t = 15 min: 15 min value
Procedure: 10 μl of a 20 mg/ml stock solution of proteinase K (Roche Diagnostics GmbH, Mannheimm, catalogue no. 745723; 90 mg dissolved in 4.5 ml water) was mixed with a chaotropic buffer containing 50 mM Tris-HCl pH 6.0, 1% DTT, 20% TRITON X-100 and x M Guanidinum thiocyanate; x=0, 1, 2, 3, 4, 5, 6). Directly after mixing the proteinase K activity was measured in a first aliquot (10 μl) of the mixture using the assay described below (0 min activity value). 15 min after mixing the proteinase K activity was measured in a second aliquot (10 μl) of the mixture using the assay described below (15 min activity value).
10 μl of the proteinase K in chaotropic buffer (see above, (A)) were mixed with assay buffer, that is to say 980 μl 0.2 M Triethanolamin, 0.05% (weight by volume) PEG 6000, 0.1 M Calcium chloride, and 10 μl of a 200 mM substate solution. The substrate was Suc-Ala-Ala-Ala-p-Nitroanilid. The assay buffer was provided in a cuvette. Immediately after mixing the cuvette was placed in a Photometer. Measurements (absorption) were taken over 15 min at 25° C. The activity of proteinase K in the assay buffer was calculated from the kinetics as indicated by a change in absorption at 405 nm.
Table 1 lists the 0 min values of the activity of proteinase K in the presence of guanidinium thiocyanate at the different concentrations given in (A). Table 2 lists the 15 min values of the activity of proteinase K in the presence of guanidinium thiocyanate at the different concentrations given in (A) as well as the control value (no chaotropic agent present). The values are expressed in relation to the 0 min activity value of proteinase K in the control buffer without chaotropic agent (see (A)), corresponding to 0.5 U/ml; this value was set as 100%. The data of Table 1 and Table 2 are graphically represented in FIG. 1 and FIG. 2.

Sequence of proteinase K (P06873 106-384): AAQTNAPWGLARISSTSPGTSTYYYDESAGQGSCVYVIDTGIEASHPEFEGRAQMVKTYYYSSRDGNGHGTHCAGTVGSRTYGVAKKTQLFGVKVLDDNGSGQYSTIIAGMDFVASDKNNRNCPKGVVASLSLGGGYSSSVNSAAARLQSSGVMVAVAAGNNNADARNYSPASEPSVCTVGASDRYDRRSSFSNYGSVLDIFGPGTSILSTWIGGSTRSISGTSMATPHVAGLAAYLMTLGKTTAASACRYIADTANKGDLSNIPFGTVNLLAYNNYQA

## N#CS.N=C(N)N [guanidinium thiocyanate]
1 M guanidinium thiocyanate
  Activity of proteinase K at t = 0 min: 94%
  Activity of proteinase K at t = 15 min: 95%
2 M guanidinium thiocyanate
  Activity of proteinase K at t = 0 min: 100%
  Activity of proteinase K at t = 15 min: 95%
3 M guanidinium thiocyanate
  Activity of proteinase K at t = 0 min: 66%
  Activity of proteinase K at t = 15 min: 1%
4 M guanidinium thiocyanate
  Activity of proteinase K at t = 0 min: 1%
  Activity of proteinase K at t = 15 min: 0%
5 M guanidinium thiocyanate
  Activity of proteinase K at t = 0 min: 0%
  Activity of proteinase K at t = 15 min: 0%
6 M guanidinium thiocyanate
  Activity of proteinase K at t = 0 min: 0%
  Activity of proteinase K at t = 15 min: 0%
